Patent US20030229066A1, “Novel heterocyclic urea derivatives and their use as dopamine D3 receptor ligands” (priority 2001, published 2003)
pKi: −log10 of the molar value.

Biological target: T1, cloned human dopamine D3 receptors (Homo sapiens, UniProt P35462)
T1 construct: expressed in transfected cells
Test: [N-Methyl-3H]Spiroperidol binding to cloned human dopamine D3 receptors
Settings: not given
From the text: [N-Methyl-^3H]Spiroperidol Binding to Cloned Human Dopamine D3 Receptors
This assay measures the in vitro activity of compounds on cloned human dopamine (D3) receptors and predicts the direct dopamine-blocking properties of putative neuropsychiatric agents at human dopamine D3 receptors.
The D3 gene was isolated from a human striatal cDNA library (Stratagene). The gene was sequenced and sub-cloned into the expression vector RC/RSV (Invitrogen). CHO (Chinese Hamster Ovary) cells were stably transfected with 10 μg of the D3/RSV plasmid using the DOTAP method from Boehringer Mannheim and 72 clones that were G418 resistant were isolated. Using mRNA and binding displacement data a single high expressing clone was identified. This clone was then grown in large batches for the purpose of developing a 96 well format assay.
The cells are harvested into 250 ml centrifuge tubes with 100 volumes of cold phosphate buffered saline (PBS) and spun down (1200×G for 10 min at 4° C.). The medium is removed and 100 ml PBS are added to each centrifuge tube, cells are resuspened and spun down again. The PBS is removed and the final pellet is homogenized in an appropriate volume of 10% DMSO with a polytron on ice at a medium setting.
For Kj determinations: [^3H]NMSP is made up to a concentration of 2.7 nM in buffer 2b, such that when 150 μl is added to each tube a final concentration of 0.4 nM is attained in the 1 ml assay. Samples of total CPM added are taken for each experiment to calculate the total ligand concentration.
5. S(-)-Eticlopride is obtained from Research Biochemicals International (RBI catalog number E-101). A refrigerated stock (good for up to a month) solution of S(-)-eticlopride is made at a concentration of 30 μM in buffer 2b. One hundred microliters are added to 3 wells for the determination of nonspecific binding (this yields a final concentration of 3 μM in the 1 ml assay).
For most assays, a 100 μM stock solution of the test compound is made up in a suitable solvent (usually <0.1% acetic acid) and serially diluted with buffer 2b, such that when 100 μl of drug is combined with the total 1 ml assay, final concentrations ranging from 10^−5-10^−8 M are attained. Characteristically eight concentrations are studied for each assay; however, higher or lower concentrations may be used, depending on the potency of the drug.
The 96-Well Packard Unifilters GF/B are incubated for >1 h at 25° C. in 0.1% polyethylamine (from 3,b). The cold tissue is added last and mixed on a orbital shaker for a few seconds and is then incubated at 37° C. for 30 min in a shaking water bath. The assay is stopped by rapid filtration through Packard Unifilter plates. The filter membranes are then washed with 15 ml of ice-cold 0.05 M Tris buffer. The filters are then dried (˜15 min under a heat lamp or incubated for 15 min in a 60° C. oven) and a bottom seal is applied. Then 40 μl of Packard Microscint 20 scintillation cocktail is added and a permanent topseal (Type P) is applied and heat sealed. The plates are then shaken on an orbital shaker for 1 h and placed in the Packard Topcount and counted for at least 5 minutes for each point.
Specific binding is defined as the difference between total binding and the binding in the presence of 3 μM S-(-)-eticlopride. Total binding is approximately 10% of the total added ligand. Cheng-Prusoff determination (Kj's) are performed using Prism software using a one-site competition curve analysis where the top and the bottom of the non-linear regression are held constant at 0% and 100% percent inhibition. The percent inhibition at each drug concentration is the mean of duplicate determinations.

T1 sequence (P35462 whole entry): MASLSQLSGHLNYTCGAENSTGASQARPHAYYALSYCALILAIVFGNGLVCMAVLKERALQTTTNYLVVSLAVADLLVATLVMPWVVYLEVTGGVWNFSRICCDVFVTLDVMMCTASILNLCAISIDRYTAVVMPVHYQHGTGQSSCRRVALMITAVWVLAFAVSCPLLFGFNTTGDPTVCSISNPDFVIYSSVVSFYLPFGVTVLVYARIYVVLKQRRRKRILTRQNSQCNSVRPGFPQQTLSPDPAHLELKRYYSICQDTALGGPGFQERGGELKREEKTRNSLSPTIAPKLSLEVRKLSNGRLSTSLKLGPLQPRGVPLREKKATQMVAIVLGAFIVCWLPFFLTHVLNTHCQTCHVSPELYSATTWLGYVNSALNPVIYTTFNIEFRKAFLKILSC

Row | pKi | Structure (SMILES)
1 | 8.53 | C=CCN(CC1CC1CN1CCCN(c2csc3cc(F)ccc23)CC1)C(=O)Nc1ccc(OC)cc1 (racemic) [compound 830389]
2 | 7.38 | O=C(Nc1ccc(OC(F)(F)F)cc1)N(Cc1ccccc1)CC1CC1CN1CCCN(c2csc3cc(F)ccc23)CC1 (racemic) [compound 830400]
3 | 7.53 | O=C(Nc1ccc(Cl)c(Cl)c1)N(Cc1ccccc1)CC1CC1CN1CCCN(c2csc3cc(F)ccc23)CC1 (racemic) [compound 830401]
4 | 8.46 | COc1ccc(NC(=O)NCC2CC2CN2CCCN(c3csc4cc(F)ccc34)CC2)cc1 (racemic) [compound 830408]
5 | 7.32 | O=C(NCC1CC1CN1CCCN(c2csc3cc(F)ccc23)CC1)Nc1ccc(Cl)c(Cl)c1 (racemic) [compound 830409]
6 | 7.36 | CC(C)(C)NC(=O)NCC1CC1CN1CCC(c2noc3ccsc23)CC1 (racemic) [compound 831498]
7 | 6.80 | O=C(NCCc1ccccc1)NCC1CC1CN1CCC(c2noc3ccsc23)CC1 (racemic) [compound 831670]

Same assay, conditions: Table III; read-out: d3Ki

Row | pKi | Structure (SMILES)
8 | 8.23 | COc1ccc(NC(=O)NCCCCN2CCN(c3csc4cc(C(F)(F)F)ccc34)CC2)cc1 [815994A]
9 | 8.39 | Cc1ccc(NC(=O)NCCCCN2CCN(c3csc4cc(C(F)(F)F)ccc34)CC2)cc1 [815997A]
10 | 8.13 | CC(=O)c1ccc(NC(=O)NCCCCN2CCN(c3c(Cl)sc4cc(F)ccc34)CC2)cc1 [compound 815158]
11 | 7.07 | O=C(NCCCCN1CCN(c2c(Cl)sc3cc(F)ccc23)CC1)Nc1ccc(Oc2ccccc2)cc1 [compound 815159]
12 | 6.72 | O=C(NCCCCN1CCN(c2c(Cl)sc3cc(F)ccc23)CC1)Nc1ccc(-c2ccccc2)cc1 [compound 815160]
13 | 7.12 | O=C(NCCCCN1CCN(c2c(Cl)sc3cc(F)ccc23)CC1)Nc1ccc(OCc2ccccc2)cc1 [compound 815161]
14 | 7.42 | O=C(NCCCCN1CCN(c2c(Cl)sc3cc(F)ccc23)CC1)Nc1ccc(C(F)(F)F)cc1 [compound 815162]
15 | 7.60 | O=C(NCCCCN1CCN(c2c(Cl)sc3cc(F)ccc23)CC1)Nc1cccc(F)c1 [compound 815163]
16 | 7.50 | O=C(NCCCCN1CCN(c2c(Cl)sc3cc(F)ccc23)CC1)Nc1ccc(F)cc1 [compound 815164]
17 | 7.67 | COc1ccc(NC(=O)NCCCCN2CCN(c3c(Cl)sc4cc(F)ccc34)CC2)cc1 [compound 815165]
18 | 7.43 | CCCCOc1ccc(NC(=O)NCCCCN2CCN(c3c(Cl)sc4cc(F)ccc34)CC2)cc1 [compound 815166]
19 | 7.32 | CC(C)c1ccc(NC(=O)NCCCCN2CCN(c3c(Cl)sc4cc(F)ccc34)CC2)cc1 [compound 815167]
20 | 7.48 | O=C(NCCCCN1CCN(c2c(Cl)sc3cc(F)ccc23)CC1)Nc1ccc(I)cc1 [compound 815168]
21 | 7.95 | O=C(NCCCCN1CCN(c2c(Cl)sc3cc(F)ccc23)CC1)Nc1ccccc1Cl [compound 815169]
22 | 7.75 | CCCCc1ccc(NC(=O)NCCCCN2CCN(c3c(Cl)sc4cc(F)ccc34)CC2)cc1 [compound 815170]
23 | 8.42 | Cc1ccc(NC(=O)NCCCCN2CCN(c3c(Cl)sc4cc(F)ccc34)CC2)cc1 [compound 815171]
24 | 8.25 | O=C(NCCCCN1CCN(c2c(Cl)sc3cc(F)ccc23)CC1)Nc1ccc(Cl)cc1 [compound 815172]
25 | 7.33 | O=C(NCCCCN1CCN(c2c(Cl)sc3cc(F)ccc23)CC1)Nc1ccccc1C(F)(F)F [compound 815173]
26 | 8.22 | O=C(NCCCCN1CCN(c2c(Cl)sc3cc(F)ccc23)CC1)Nc1ccc(Br)cc1 [compound 815174]
27 | 7.93 | O=C(NCCCCN1CCN(c2c(Cl)sc3cc(F)ccc23)CC1)Nc1cccc2ccccc12 [compound 815175]
28 | 7.74 | O=C(NCCCCN1CCN(c2c(Cl)sc3cc(F)ccc23)CC1)NCc1ccccc1 [compound 815177]
29 | 6.72 | S=C(NCCCCN1CCC(c2noc3ccsc23)CC1)Nc1ccccc1 [compound 815383]
30 | 7.74 | O=C(NCCCCN1CCC(c2noc3ccsc23)CC1)Nc1ccc(Br)cc1 [compound 815386]
31 | 7.55 | O=C(NCCCCN1CCC(c2noc3ccsc23)CC1)Nc1ccc(-c2ccccc2)cc1 [compound 815387]
32 | 7.52 | O=C(NCCCCN1CCC(c2noc3ccsc23)CC1)NC1CCCCC1 [compound 815389]
33 | 7.28 | O=C(NCCCCN1CCC(c2noc3ccsc23)CC1)Nc1cccc2ccccc12 [compound 815390]
34 | 7.80 | O=C(NCCCCN1CCC(c2noc3ccsc23)CC1)Nc1ccc(Oc2ccccc2)cc1 [compound 815391]

Row | pKi | Structure (SMILES)
35 | 7.62 | O=C(NCCCCN1CCC(c2noc3ccsc23)CC1)NC12CC3CC(CC(C3)C1)C2 [compound 815392]
36 | 8.38 | CCc1cccc(NC(=O)NCCCCN2CCC(c3noc4ccsc34)CC2)c1 [compound 815934]
37 | 7.27 | O=C(NCCCCN1CCC(c2noc3ccsc23)CC1)Nc1ccc(OC(F)(F)F)cc1 [compound 815935]
38 | 8.41 | O=C(NCCCCN1CCC(c2noc3ccsc23)CC1)Nc1cc(C(F)(F)F)ccc1Cl [compound 815936]
39 | 7.18 | CC(NC(=O)NCCCCN1CCC(c2noc3ccsc23)CC1)c1ccc(Br)cc1 (stereo not shown) [compound 815937]
40 | 7.72 | O=C(NCCCCN1CCC(c2noc3ccsc23)CC1)Nc1ccccc1Br [compound 815939]
41 | 6.85 | CCNC(=O)NCCCCN1CCC(c2noc3ccsc23)CC1 [compound 815940]
42 | 6.89 | CCOC(=O)c1ccccc1NC(=O)NCCCCN1CCC(c2noc3ccsc23)CC1 [compound 815941]
43 | 7.38 | CCOC(=O)C(CC(C)C)NC(=O)NCCCCN1CCC(c2noc3ccsc23)CC1 (stereo not shown) [compound 815942]
44 | 6.70 | CCOC(=O)CCNC(=O)NCCCCN1CCC(c2noc3ccsc23)CC1 [compound 815943]
45 | 6.53 | COC(=O)C(Cc1ccccc1)NC(=O)NCCCCN1CCC(c2noc3ccsc23)CC1 (stereo not shown) [compound 815944]
46 | 6.94 | O=C(NCCCCN1CCC(c2noc3ccsc23)CC1)NCc1cc(=O)oc2cc3c(cc12)OCO3 [compound 815945]
47 | 7.55 | CCCCCCCCNC(=O)NCCCCN1CCC(c2noc3ccsc23)CC1 [compound 815946]
48 | 7.59 | COc1c(Cl)cccc1NC(=O)NCCCCN1CCC(c2noc3ccsc23)CC1 [compound 815947]
49 | 8.22 | O=C(NCCCCN1CCC(c2noc3ccsc23)CC1)Nc1ccccc1F [compound 815948]
50 | 7.87 | O=C(NCCCCN1CCC(c2noc3ccsc23)CC1)Nc1ccccc1Cl [compound 815949]
51 | 7.57 | CC(C)c1ccccc1NC(=O)NCCCCN1CCC(c2noc3ccsc23)CC1 [compound 815952]
52 | 7.17 | C=C(C)c1cccc(C(C)(C)NC(=O)NCCCCN2CCC(c3noc4ccsc34)CC2)c1 [compound 815953]
53 | 7.83 | CCOC(=O)c1ccc(NC(=O)NCCCCN2CCC(c3noc4ccsc34)CC2)cc1 [compound 815954]
54 | 8.23 | O=C(NCCCCN1CCN(c2csc3cc(C(F)(F)F)ccc23)CC1)Nc1cccc2ccccc12 [compound 815996]
55 | 7.65 | O=C(NCCCCN1CCN(c2csc3cc(C(F)(F)F)ccc23)CC1)NCc1ccccc1 [compound 815998]
56 | 7.72 | COc1ccccc1NC(=O)NCCCCN1CCN(c2csc3cc(C(F)(F)F)ccc23)CC1 [compound 815999]
57 | 8.21 | O=C(NCCCCN1CCN(c2csc3cc(C(F)(F)F)ccc23)CC1)Nc1ccc(F)cc1 [compound 816004]
58 | 8.13 | O=C(NCCCCN1CCN(c2csc3cc(C(F)(F)F)ccc23)CC1)Nc1ccc(F)cc1F [compound 816006]
59 | 7.76 | Cc1ccccc1NC(=O)NCCCCN1CCN(c2csc3cc(C(F)(F)F)ccc23)CC1 [compound 816007]
60 | 7.77 | COc1ccc(NC(=O)NCCCCN2CCN(c3csc4cc(C(F)(F)F)ccc34)CC2)c(OC)c1 [compound 816008]

Row | Structure (SMILES) | pKi
61 | CCO[Si](CCCNC(=O)NCCCCN1CCC(c2noc3ccsc23)CC1)(OCC)OCC [compound 815938] | 6.82
